# Assay results taken from US10028949B2, “Parenteral formulations of lipophilic pharmaceutical agents and methods for preparing and using the same” (priority 2011, dated 2018).
# Read-outs that look alike come from different tables or passages of the source.
# Columns and labels:
# [1] = Stability of Bu formulations by HPLC; format: physicochemical; settings: for stability maintained: stock formulation diluted with D5W
# Experimental: It was initially important to describe short-term stability of the Bu/acetone/PEG mixture. This was necessary to determine if the vacuum-extraction step could be utilized without undue chemical degradation of Bu. The Bu (5 mg/mL) in acetone/PEG400 (1:2, v/v) was incubated at room temperature and quantified by HPLC after 0, 1, 2, 4, 8 and 24 hours. Second, the inventors confirmed that Bu would be stable in the VE-acetone/PEG/Bu complex. Therefore, to determine long-term stability Bu was dissolved in acetone (10 mg/mL), then mixed with PEG 400 (ratio 1:2, v/v). The acetone was extracted from the mixture under vacuum at room temperature (RT). The VE-acetone/PEG400/Bu was stored either at room temperature or 37° C. for 2 months in sealed tubes. Finally, Bu (1 mg/mL) in the final use formulation of VE-acetone/PEG 400/D5W (0:40:60, v/v/v), was incubated at room temperature and analyzed by HPLC at 0, 1, 2, 4, 8 and 15 hours to determine short-term stability. Triplicate samples were quantitatively analyzed with HPLC at all time points after appropriate dilution of the samples in the stability studies.
# Bu was dissolved at a concentration of about 10 mg/mL in acetone only or in VE-acetone/PEG (prototype stock solvent vehicle) and incubated at RT (22° C.) and at 37° C. The resulting Bu concentration was measured by HPLC in samples taken immediately after solubilization, then every few hours for 8 hours, and then at gradually increasing time intervals for up to 60 days.
# [2] = test system: human myeloid leukemia cell lines KBM-3 and KBM-7/B5, as well as the OCI-AML3; test: In vitro cytotoxicity of busulfan, MTT assay; format: cell-based; settings: compared with Bu dissolved in DMSO (positive control)
# Experimental: The cytotoxic potential of the selected preferred solvent systems with and without Bu was determined against the human myeloid leukemia cell lines KBM-3 and KBM-7/B5, as well as the OCI-AML3 (Andersson et al., 1993; Andersson et al., 1987; Andersson et al., 1995; Wang et al., 1991). Briefly, continuously growing cells were exposed to drug, and then pelleted, after which they were resuspended in complete cell culture medium at 2×10^5/mL and aliquoted (20,000/well) in 96-well plates, incubated at 37° C. for 4 days, and analyzed by the MTT assay (Mosmann, 1983). Graphical analyses including calculations of IC50 and charting of survival were done using Prism 4 (GraphPad Software, Inc., San Diego, Calif.). Cells exposed in parallel to solvent system and medium alone served as negative controls, and cells exposed to […] (final concentration 0.08% v/v) served as a positive control for a comparison of cytotoxic action with the DMA-Bu formulation.
# [3] = Parenteral busulfan pharmacology in mice
# Experimental: Swiss Webster mice with a body weight of 25-30 g were used for the in vivo pharmacology experiments (Harlan-Sprague-Dawley, Houston, Tex.). The animals were allowed a minimum of 3-4 days after arrival to acclimatize to the new environment and allowed free access to commercial feed and hyperchlorinated, reverse-osmosis purified water prior to and during the experimentation period. The animal-housing facilities meet the requirements of the USDA, NIH, and DHHS.
# Busulfan at a dose of 10 mg/kg BW was used as an appropriate and representative single dose that could be administered as a slow IV bolus injection over 3-4 min.
# The Bu was formulated in the prototype VE-acetone/PEG vehicle to a stock concentration of about 10 mg/mL and then diluted with D5W to 1 mg/mL and 2 mg/mL (in repeated experiments) so the total dose of 10 mg/kg could be injected in a volume of about 250 μL and 125 μL, respectively, in a tail vein. The Bu concentrations of the final use-formulation were confirmed by HPLC prior to administration.
# No anticonvulsant premedication was used in the animals in these experiments to avoid the possible induction of microsomal liver enzymes that could modify Bu metabolism. For the same reason the animals were unanesthetized during the drug injection, only physically restrained.
# Blood samples (0.5-1.0 mL) were procured through cardiac puncture under Isoflurane-induced general anesthesia. These samples were drawn in preheparinized tubes at selected time points prior to the drug infusion (“blank”), and from 5 min to 4 hours after drug injection for determination of Bu concentrations. The blood was centrifuged at 1,000×g for 10 min, and plasma was removed and stored at −80° C. until extracted and assayed by HPLC.
# [4] = cited from earlier work
# [5] = cited from earlier work; for incidence of neurotoxicity, especially serious generalized seizure activity: after Bu-based conditioning therapy
# [6] = in vivo; cited from earlier work
# physchem = settings: thermodynamic from solid
compound,measurement,setting,value
"CS(=O)(=O)OCCCCOS(C)(=O)=O [Busulfan, 1,4-butanediol dimethanesulfonate]","time stable in solution, stock formulation","[1]; Bu/VE-acetone/PEG stock formulation, approximately 5 mg/mL, RT",≥ 60 days
same,"time stable, final use-formulation","[1]; VE-acetone/PEG diluted with aqueous diluent to 1 mg/mL, RT",at least 15 hours
same,stability in DMSO,[1]; in DMSO,rapidly started degrading
same,time stably dissolved,"[1]; in acetone and DMA, RT",at least 7 days
same,"time stable, final clinical use-formulation","[1]; reconstituted with D5W, 0.5 to 2 mg/mL, RT",at least 15 hours
same,stability maintained,[1]; up to 15 hours at 1 mg/ml,~100%
same,stability maintained,[1]; up to 25 hours at 0.5 mg/ml,~100%
same,cytotoxic activity,[2],retained full cytotoxic activity
same,half-life,"[3]; Swiss Webster, mouse, plasma, iv, 10 mg/kg",2.5 to 3.5 h
same,tolerability of injections,"[3]; mice, 10 mg/kg IV, acute 4-hour observation period",well tolerated
same,hemolysis in vivo (urine samples),"[3]; mice, 10 mg/kg, urine samples up to 4 hours",no sign of hemolysis
same,Bu plasma concentrations,"[3]; mice, IV 10 mg/kg BW",for several hours remained in the cytotoxic range
same,Solubility,"[4]; Solvent: Acetone, in literature",~25000 µg/mL
same,Solubility (mg/mL),[4]; Solvent: Water (The Merck Index),Negligible (The Merck Index)
same,"incidence of neurotoxicity, especially serious generalized seizure activity",[5]; adults,≤ 10%
same,"incidence of neurotoxicity, especially serious generalized seizure activity",[5]; children,approximately 7%
same,"EEG abnormalities, patients",[5]; without overt seizure activity,up to 60%
same,terminal half-life in blood,[6],2 to 4 h
same,solubility at 60 minutes,"physchem; aqueous buffer, Solubility (mg/mL), Solvent: HCl 6 N, room temperature",700 µg/mL
same,solubility at 60 minutes,"physchem; aqueous with cosolvent or surfactant or cyclodextrin, Solubility (mg/mL), Solvent: PEG:water 1:1, room temperature",250 µg/mL
same,solubility at 60 minutes,"physchem; aqueous with cosolvent or surfactant or cyclodextrin, Solubility (mg/mL), Solvent: PEG:water 1:2, room temperature",190 µg/mL
same,Solubility,physchem; organic solvent or mixture,16400 µg/mL
same,solubility at 60 minutes,physchem; organic solvent or mixture,~16000 µg/mL
same,solubility at 60 minutes,"physchem; organic solvent or mixture, Solubility (mg/mL), Solvent: Acetic acid, room temperature",3800 µg/mL
same,solubility at 60 minutes,"physchem; organic solvent or mixture, Solubility (mg/mL), Solvent: Ethanol, room temperature",300 µg/mL
same,solubility at 60 minutes,"physchem; organic solvent or mixture, Solubility (mg/mL), Solvent: PEG (−400), room temperature",200 µg/mL
same,solubility at 60 minutes,"physchem; organic solvent or mixture, Solubility (mg/mL), Solvent: Propylene glycol, room temperature",200 µg/mL
